Measurements reported in patent publication US6417212B1, “Modulators of peroxisome proliferator activated receptors” (Eli Lilly & Company, priority 1999, dated 2002).

How the values were obtained:
huPPARα [1] = target: T1, huPPARα (Homo sapiens, UniProt Q07869); test: DNA-dependent binding (ABCD binding), SPA, huPPARα; settings: displacement of tritium-labeled PPARα agonist radioligand
T1 sequence (Q07869 1-468): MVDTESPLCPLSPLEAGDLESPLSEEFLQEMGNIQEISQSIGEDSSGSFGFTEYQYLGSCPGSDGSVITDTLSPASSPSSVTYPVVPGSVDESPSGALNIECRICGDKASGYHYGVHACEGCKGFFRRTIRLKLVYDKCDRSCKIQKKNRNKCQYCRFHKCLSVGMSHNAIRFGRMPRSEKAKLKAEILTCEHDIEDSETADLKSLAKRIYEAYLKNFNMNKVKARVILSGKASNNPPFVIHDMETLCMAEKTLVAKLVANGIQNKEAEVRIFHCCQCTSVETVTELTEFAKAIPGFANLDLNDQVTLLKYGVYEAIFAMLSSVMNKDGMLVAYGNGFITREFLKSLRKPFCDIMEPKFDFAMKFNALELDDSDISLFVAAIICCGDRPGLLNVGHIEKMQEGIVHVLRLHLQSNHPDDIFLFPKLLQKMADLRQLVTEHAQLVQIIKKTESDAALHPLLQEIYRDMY
T1 sequence (P19793 1-462 partner): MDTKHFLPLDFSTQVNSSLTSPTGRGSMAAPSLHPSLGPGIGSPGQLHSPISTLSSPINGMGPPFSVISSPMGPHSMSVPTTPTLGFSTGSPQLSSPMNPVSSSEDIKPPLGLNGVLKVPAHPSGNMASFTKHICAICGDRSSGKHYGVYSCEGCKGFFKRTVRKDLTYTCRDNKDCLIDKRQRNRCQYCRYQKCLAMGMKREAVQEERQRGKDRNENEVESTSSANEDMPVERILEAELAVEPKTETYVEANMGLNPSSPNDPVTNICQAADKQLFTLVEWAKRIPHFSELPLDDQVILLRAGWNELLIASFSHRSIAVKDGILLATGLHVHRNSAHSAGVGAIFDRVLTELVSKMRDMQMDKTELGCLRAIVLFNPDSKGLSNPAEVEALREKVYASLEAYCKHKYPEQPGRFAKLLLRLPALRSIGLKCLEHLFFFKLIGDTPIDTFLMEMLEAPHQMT
Protocol: (§1) DNA-dependent binding (ABCD binding) was carried out using SPA technology with PPAR receptors. Tritium-labeled PPARγ and PPARα agonists were used as radioligands for generating displacement curves and IC50 values with compounds of the invention. Cotransfection assays were carried out in CV-1 cells. The reporter plasmid contained an acylCoA oxidase (AOX) PPRE and TK promoter upstream of the luciferase reporter cDNA. Appropriate PPARs and RXRα were constitutively expressed using plasmids containing the CMV promoter. […] In order to eliminate such interference, a GAL4 chimeric system was used in which the DNA binding domain of the transfected PPAR was replaced by that of GAL4, and the GAL4 response element was utilized in place of the AOX PPRE. Cotransfection efficacy was determined relative to PPARα agonist and PPARβ agonist reference molecules. Efficacies were determined by computer fit to a concentration-response curve, or in some cases at a single high concentration of agonist (10 μM). For binding or cotransfection studies with receptors other than PPARs, similar assays were carried out using appropriate ligands, receptors, reporter constructs, etc., for that particular receptor.
(§2) These studies were carried out to evaluate the ability of compounds of the invention to bind to and/or activate various nuclear transcription factors, particularly huPPARα (“hu” indicates “human”) and huPPARγ. These studies provide in vitro data concerning efficacy and selectivity of compounds of the invention. Furthermore, binding and cotransfection data for compounds of the invention were compared with corresponding data for marketed compounds that act on either huPPARα or huPPARγ.

huPPARα [2] = test: Cotransfection assay in CV-1 cells, huPPARα (GAL4 chimeric system); assay type: cell-based, human; settings: luciferase reporter, relative to PPARα agonist reference molecule
Protocol: DNA-dependent binding (ABCD binding) was carried out using SPA technology with PPAR receptors. Tritium-labeled PPARγ and PPARα agonists were used as radioligands for generating displacement curves and IC50 values with compounds of the invention. Cotransfection assays were carried out in CV-1 cells. The reporter plasmid contained an acylCoA oxidase (AOX) PPRE and TK promoter upstream of the luciferase reporter cDNA. Appropriate PPARs and RXRα were constitutively expressed using plasmids containing the CMV promoter. For PPARα and PPARβ, interference by endogenous PPARγ in CV-1 cells was an issue. In order to eliminate such interference, a GAL4 chimeric system was used in which the DNA binding domain of the transfected PPAR was replaced by that of GAL4, and the GAL4 response element was utilized in place of the AOX PPRE. Cotransfection efficacy was determined relative to PPARα agonist and […] reference molecules. Efficacies were determined by computer fit to a concentration-response curve, or in some cases at a single high concentration of agonist (10 μM). For binding or cotransfection studies with receptors other than PPARs, similar assays were carried out using appropriate ligands, receptors, reporter constructs, etc., for that particular receptor.
as §2

huPPARγ [3] = target: T2, huPPARγ (Homo sapiens, UniProt P37231); test: DNA-dependent binding (ABCD binding), SPA, huPPARγ; settings: displacement of tritium-labeled PPARγ agonist radioligand
T2 sequence (P37231 1-505): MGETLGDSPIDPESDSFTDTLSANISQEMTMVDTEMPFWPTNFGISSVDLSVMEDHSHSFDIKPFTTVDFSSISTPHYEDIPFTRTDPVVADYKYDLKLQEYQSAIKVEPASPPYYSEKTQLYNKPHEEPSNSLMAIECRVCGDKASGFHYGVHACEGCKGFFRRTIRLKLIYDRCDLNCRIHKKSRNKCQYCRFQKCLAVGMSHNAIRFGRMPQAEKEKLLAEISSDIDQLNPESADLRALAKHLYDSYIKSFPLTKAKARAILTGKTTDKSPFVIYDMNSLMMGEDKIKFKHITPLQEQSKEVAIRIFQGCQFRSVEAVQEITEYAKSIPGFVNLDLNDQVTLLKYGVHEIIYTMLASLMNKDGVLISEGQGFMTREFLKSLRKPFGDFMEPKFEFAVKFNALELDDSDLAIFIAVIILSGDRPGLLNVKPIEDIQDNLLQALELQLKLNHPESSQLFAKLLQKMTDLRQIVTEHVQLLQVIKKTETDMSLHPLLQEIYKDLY
T2 sequence (P19793 1-462 partner): T1 sequence (P19793 1-462 partner)
Protocol: as §1, §2

huPPARγ [4] = target: T2, huPPARγ; test: Cotransfection assay in CV-1 cells, huPPARγ; assay type: cell-based; parameters: expressed in transfected cells; host or cells: CV-1 cells; settings: AOX PPRE luciferase reporter, relative to agonist reference molecule; for Emax: read-out: huPPARγ CTF Efficacy
Protocol: as §1, with “Tritium-labeled PPARγ and PPARα agonists were used as radioligands for generating displacement curves and IC50 values with compounds of the invention.” left out, “Cotransfection efficacy was determined relative to PPARα agonist and PPARβ agonist reference molecules.” left out
as §2

Compound	IC50 (huPPARα [1])	huPPARα CTF Efficacy (huPPARα [2])	IC50 (huPPARγ [3])	Emax (huPPARγ [4])	huPPARγ CTF Efficacy (huPPARγ [4])
COc1ccccc1-c1ccc(-c2nc(CCOc3ccc(OC(C)(C)C(=O)O)cc3)c(C)o2)cc1 [Example 10, 2-(4-{2-[2-(2′-Methoxy-biphenyl-4-yl)-5-methyloxazol-4-yl]-ethoxy}-phenoxy)-2-methylpropionic acid]	0.35 µM	111%	1.06 µM	80%	
Cc1oc(-c2ccc(-c3ccccc3F)cc2)nc1CCOc1ccc(OC(C)(C)C(=O)O)cc1 [Example 13, 2-(4-{2-[2-(2′-Fluorobiphenyl-4-yl)-5-methyloxazol-4-yl]-ethoxy}-phenoxy)-2-methylpropionic acid]	0.475 µM	84%	0.928 µM	100%	
Cc1oc(-c2ccc(-c3ccc[nH]3)cc2)nc1CCOc1ccc(OC(C)(C)C(=O)O)cc1 [Example 18, 2-Methyl-2-[4-(2-{5-methyl-2-[4-(1H-pyrrol-2-yl)-phenyl]-oxazol-4-yl}-ethoxy)-phenoxy]propionic acid]	0.539 µM	97%	1.79 µM	145%	
Cc1oc(-c2ccc(-c3ccccc3)cc2)nc1CCOc1ccc(OC(C)(C)C(=O)O)c(CC2CCCCC2)c1 [Example 25, 2-{4-[2-(2-Biphenyl-4-yl-5-methyloxazol-4-yl)-ethoxy]-2-cyclohexylmethyl-phenoxy}-2-methyl-propionic acid]	0.125 µM	104%	0.081 µM	71%	
Cc1oc(-c2cccc(-c3ccccc3)c2)nc1CCOc1ccc(OC(C)(C)C(=O)O)c(CC2CCCCC2)c1 [Example 26, 2-{4-[2-(2-Biphenyl-3-yl-5-methyloxazol-4-yl)-ethoxy]-2-cyclohexylmethyl-phenoxy}-2-methyl-propionic acid]	0.078 µM	111%	0.033 µM	73%	
Cc1oc(-c2ccc(-c3ccccc3)cc2)nc1CCOc1ccc(OC(C)(C)C(=O)O)c(CCc2ccccc2)c1 [Example 28, 2-{4-[2-(2-Biphenyl-4-yl-5-methyloxazol-4-yl)ethoxy]-2-phenethylphenoxy}-2-methylpropionic acid]	0.172 µM	93%	0.14 µM	63%	
CCCCc1cc(OC(C)(C)C(=O)O)ccc1OCCc1nc(-c2cccc(-c3ccccc3)c2)oc1C [Example 32, 2-{4-[2-(2-Biphenyl-3-yl-5-methyloxazol-4-yl)ethoxy]-3-butylphenoxy}-2-methylpropionic acid]	0.047 µM	91%	0.012 µM	60%	
Cc1oc(-c2ccc(-c3ccccc3)cc2)nc1CCOc1ccc(OC(C)(C)C(=O)O)cc1CC1CCCCC1 [Example 34, 2-{4-[2-(2-Biphenyl-4-yl-5-methyloxazol-4-yl)ethoxy]-3-cyclohexylmethylphenoxy}-2-methylpropionic acid]	0.193 µM	180%	0.227 µM	55%	
Cc1oc(-c2cccc(-c3ccccc3)c2)nc1CCOc1ccc(OC(C)(C)C(=O)O)c(Cc2ccccc2)c1 [Example 35, 2-{2-Benzyl-4-[2-(2-biphenyl-3-yl-5-methyloxazol-4-yl)-ethoxy]-phenoxy}-2-methyl-propionic acid]	0.065 µM	90%	0.024 µM	61%	
Cc1oc(-c2ccc(-c3ccccc3)cc2)nc1CCOc1ccc(OC(C)(C)C(=O)O)c(Cc2ccccc2)c1 [Example 36, 2-{2-Benzyl-4-[2-(2-biphenyl-4-yl-5-methyloxazol-4-yl)-ethoxy]-phenoxy}-2-methyl-propionic acid]	0.14 µM	140%	0.062 µM	92%	
Cc1oc(-c2ccc(-c3ccccc3)cc2)nc1CCSc1ccc(OC(C)(C)C(=O)O)cc1 [Example 47, 2-{4-[2-(2-Biphenyl-4-yl-5-methyloxazol-4-yl)-ethylsulfanyl]-phenoxy}-2-methyl-propionic acid]	0.371 µM	90%	1.53 µM	126%	
CC(C)(Oc1ccc(C(=O)c2ccc(Cl)cc2)cc1)C(=O)O [Fenofibric acid, reference compound]		16%			0%
